Reference: patent US20030013658A1, “Small peptides and methods for treatment of asthma and inflammation” (Hisatek, LLC, priority 1997, published 2003)
“Also recorded” adds a separate entry of the source. Where no end group is shown, it is not given here. The star is where a group is joined. For = O=C*

System: OVA-sensitized/challenged mice
Test: OVA-induced bronchial asthma mouse model (Standard/Resolution protocols, 1-3 month), airway eosinophils and mucus plugs
Type: in vivo
Text: The OVA-induced Bronchial Asthma Mouse Model for Inhibition of Mast Cell Degranulation
Reagents: Crystalline OVA was obtained from Pierce Chem. Co. (Rockford, Ill.) aluminum potassium sulfate (alum) from Sigma Chem. Co. (St. Louis, Mo.), pyrogen-free distilled water from Baxter, Healthcare Corporation (Deerfield, Ill.), 0.9% sodium chloride (normal saline) from Lymphomed (Deerfield, Ill.) and Trappsol™ HPB-L100 (aqueous hydroxypropyl beta cyclodextrin; 45 wt/vol % aqueous solution) from Cyclodextrin Technologies Development, Inc. (Gainesville, Fla.). The OVA (500 μg/ml in normal saline) was mixed with equal volumes of 10% (wt/vol) alum in distilled water. The mixture (pH 6.5 using 10 N NaOH) after incubation for 60 minutes at room temperature underwent centrifugation at 750 g for 5 minutes; the pellet was resuspended to the original volume in distilled water and used within one hour.
The selective 5-lipoxtgenase inhibitor, Zileuton (N-[1-benzo[b]thien-2-ylethyl]-N-hydroxyurea; J. Pharmacol Exp Ther. 1991; 256: 929-937), was kindly provided by Drs. Bell and George W. Carter (Abbott Laboratories, Abbott Part, Ill.). Zileuton was dissolved in Trappsol.™. Histatek, Inc. (Seattle, Wash.) provided the mast cell degranulation inhibitor, f-Met-Leu-Phe-Phe (“HK-X”).
Female BALB/c […] (6-8 wk of age at purchase; D and K, Seattle Wash.) were housed under conventional conditions for the studies.
Allergen Immunization/Challenge Protocols: Mice received an i.p. injection of 0.2 ml (100 μg) of OVA with alum on the different protocols of Standard (FIG. 5A) and Resolution (FIG. 5B) (J. Exp Med. 1996; 184: 1483-1494). According to the different protocols, mice were anesthetized with 0.2 ml i.p. of ketamine (0.44 mg/ml)/xylazine (6.3 mg/ml) in normal saline before receiving an intranasal (i.n.) does of 100 μg OVA in 0.05 ml normal saline and an i.n. dose of 50 μg OVA in 0.05 ml normal saline separately on different days. Two control groups were used. Accordingly, the first group received normal saline with alum i.p. and normal saline without alum i.n.; the second group received OVA with alum i.p., OVA without alum i.n., and normal saline, alone.
The trachea and left lung (the right lung is used for bronchoalveolar lavage (“BAL”)) were obtained and fixed in 10% neutral formaldehyde solution at room temperature for 6˜15 h. After being embedded in paraffin, the tissues were cut into 5-um sections and processed with the different staining or immunolabling further. Discombe's eosinophil staining was used for counting the cell numbers with the counterstain of methylene blue. The eosinophil number per unit airway area (2,200 μm^2) was determined by morphometry (J. Pathol. 1992; 166: 395-404; Am Rev Respir Dis. 1993; 147:448-456). Fibrosis was identified with the Masson's trichrome staining. Airway mucus was identified by the following staining method: methylene blue, hematoxylin and eosin, mucicarmine, alcian blue, and alcian blue/periodic acid-Schiff (PAS) reaction (Troyer, H., “Carbohydrates” in Principles and Techniques of Histochemistry, Little, Brown and Company, Boston, Mass., 1980: 89-121; Sheehan, D. C., et al., “Carbohydrates” in Theory and Practice of Histotechnology, Battle Press, Columbus, Ohio, 1980: 159-179) Mucin was stained with mucicarmine solution; metanil yellow counterstain was employed. Acidic mucin and sulfated mucosubstances were stained with alcian blue, pH 2.5; nuclear fast red counterstain was used. Neutral and acidic mucosubstances were identified by alcian blue, pH 2.5, and PAS reaction. The degree of mucus plugging of the airways (0.5-0.8 mm in diameter) was also assessed by morphometry. The percent occlusion of airway diameter by mucus was classified on a semiquantitative scale from 0 to 4+ as described in Figure Legends. The histologic and morphometric analyses were performed by individuals blinded to the protocol design. […]

f-Met-Leu-Phe-Phe (For-MLFF) [Example 9]
AIRWAY INFLUX OF EOSINOPHILS (%) (1 month): 14.20%
% of plug of airway (28 days): 19%
PERCENTAGE OF EOSINOPHILS IN AIRWAY TISSUE (28 days of treatment): 14.2%
MUCUS PLUG SCORE IN AIRWAYS (28 days, semiquantitative scale 0 to 4+): 1.4
mucus accumulation / mucus release in airway (HK-X given before i.n. OVA, morphometry, FIG. 6, listed as HK-X): inhibits mucus accumulation in the airway; also recorded: airway mucus release in the airway (AW) lumen is markedly reduced
infiltration of the interstitial tissue by eosinophils (compared to OVA-challenge alone, FIG. 6C): infiltration of the interstitial tissue by eosinophils is also reduced
formation of mucus plugs / mucus production in small airways (doses of 5 μg/kg and 10 μg/kg, FIG. 7): Both doses significantly reduce the mucus production in small airways
reduction of airway eosinophils compared with Zileuton (one month): reduced eosinophils comparably at one month
reduction of airway eosinophils compared with Zileuton (two and three months): much more beneficially at two and three months
